Laboratory results reported in ChEMBL document CHEMBL5726776, “3,5-diamino-6-chloro-N-(N-(4-phenylbutyl)carbamimidoyl) pyrazine-2-carboxamide compounds” (2019).

Test: In Vitro Measure of Sodium Channel Blocking Activity and Reversibility: One assay used to assess mechanism of action and/or potency of the compounds of the present invention involves the determination of lumenal drug inhibition of airway epithelial sodium currents measured under short circuit current (ISC) using airway epithelial monolayers mounted in Using chambers. This assay is described in detail in Hirsh, A. J., Zhang, J., Zamurs, A., et al. Pharmacological properties of N-(3,5-diamino-6-chloropyrazine-2-carbonyl)-N′-4-[4-(2,3-dihydroxypropoxy)phenyl]butyl-guanidine methanesulfonate (552-02), a novel epithelial sodium channel blocker with potential clinical efficacy for CF lung disease. J. Pharmacol. Exp. Ther. 2008; 325(1): 77-88. Cells obtained from freshly excised human, dog, sheep or rodent airways are seeded onto porous 0.4 micron Snapwell™ Inserts (CoStar), cultured at air-liquid interface (ALI) conditions in hormonally defined media, and assayed for sodium transport activity (ISC) while bathed in Krebs Bicarbonate Ringer (KBR) in Using chambers. All test drug additions are to the lumenal bath with half-log dose addition protocols (from 1×10−11 M to 3×10−5 M), and the cumulative change in ISC (inhibition) recorded. All drugs are prepared in dimethyl sulfoxide as stock solutions at a concentration of 1×10−2 M and stored at −20° C. […] After the maximal concentration ([…]) is administered, the lumenal bath is exchanged three times with fresh drug-free KBR solution, and the resultant ISC measured after each wash for approximately 5 minutes in duration. Reversibility is defined as the percent return to the baseline value for sodium current after the third wash. All data from the voltage clamps are collected via a computer interface and analyzed off-line.Dose-effect relationships for all compounds are considered and analyzed by the Prism 3.0 program.

| SMILES | IC50 [nM] |
| --- | --- |
| N=C(NCCCCc1ccc(C[C@H](NCCCN(C[C@H](O)[C@@H](O)[C@H](O)[C@H](O)CO)C[C@H](O)[C@@H](O)[C@H](O)[C@H](O)CO)C(N)=O)c2ccccc12)NC(=O)c1nc(Cl)c(N)nc1N | 40.8 |
| CCCCCCN(CCCN[C@@H](CCc1ccc(CCCCNC(=N)NC(=O)c2nc(Cl)c(N)nc2N)c2ccccc12)C(N)=O)C[C@H](O)[C@@H](O)[C@H](O)[C@H](O)CO | 14.3 |
| N=C(NCCCCc1ccc(CC[C@H](NCCCN(C[C@H](O)[C@@H](O)[C@H](O)[C@H](O)CO)C[C@H](O)[C@@H](O)[C@H](O)[C@H](O)CO)C(N)=O)c2c1CCCC2)NC(=O)c1nc(Cl)c(N)nc1N | 7.3 |
| CCCCCCN(CCCN[C@@H](Cc1ccc2cc(CCCCNC(=N)NC(=O)c3nc(Cl)c(N)nc3N)ccc2c1)C(N)=O)C[C@H](O)[C@@H](O)[C@H](O)[C@H](O)CO | 11.3 |
| N=C(NCCCCc1ccc2cc(C[C@H](NCCCN(C[C@H](O)[C@@H](O)[C@H](O)[C@H](O)CO)C[C@H](O)[C@@H](O)[C@H](O)[C@H](O)CO)C(N)=O)ccc2c1)NC(=O)c1nc(Cl)c(N)nc1N | 27.4 |
| CCCCCCN(CCCN[C@@H](CCc1ccc2cc(CCCCNC(=N)NC(=O)c3nc(Cl)c(N)nc3N)ccc2c1)C(N)=O)C[C@H](O)[C@@H](O)[C@H](O)[C@H](O)CO | 6 |
| CCCCCCN(CCCN[C@@H](Cc1ccc(CCCCNC(=N)NC(=O)c2nc(Cl)c(N)nc2N)cc1)C(N)=O)C[C@H](O)[C@@H](O)[C@H](O)[C@H](O)CO | 2.9 |
| CCCCCCN(CCCN[C@@H](Cc1ccc(CCCCNC(=N)NC(=O)c2nc(Cl)c(N)nc2N)c2ccccc12)C(N)=O)C[C@H](O)[C@@H](O)[C@H](O)[C@H](O)CO | 8.8 |
| CCCCCCN(CCCN[C@@H](Cc1ccc(CCCCNC(=N)NC(=O)c2nc(Cl)c(N)nc2N)c2c1CCCC2)C(N)=O)C[C@H](O)[C@@H](O)[C@H](O)[C@H](O)CO | 8.4 |
| N=C(NCCCCc1ccc(CC[C@H](NCCCN(C[C@H](O)[C@@H](O)[C@H](O)[C@H](O)CO)C[C@H](O)[C@@H](O)[C@H](O)[C@H](O)CO)C(N)=O)c2ccccc12)NC(=O)c1nc(Cl)c(N)nc1N | 24 |
| CCCCCCN(CCCN[C@@H](CCc1ccc(CCCCNC(=N)NC(=O)c2nc(Cl)c(N)nc2N)cc1)C(N)=O)C[C@H](O)[C@@H](O)[C@H](O)[C@H](O)CO | 2.6 |
| N=C(NCCCCc1ccc(CC[C@H](NCCCN(C[C@H](O)[C@@H](O)[C@H](O)[C@H](O)CO)C[C@H](O)[C@@H](O)[C@H](O)[C@H](O)CO)C(N)=O)cc1)NC(=O)c1nc(Cl)c(N)nc1N | 10.6 |
| N=C(NCCCCc1ccc(C[C@H](NCCCN(C[C@H](O)[C@@H](O)[C@H](O)[C@H](O)CO)C[C@H](O)[C@@H](O)[C@H](O)[C@H](O)CO)C(N)=O)c2c1CCCC2)NC(=O)c1nc(Cl)c(N)nc1N | 5.5 |
| N=C(NCCCCc1ccc(C[C@H](NCCCN(C[C@H](O)[C@@H](O)[C@H](O)[C@H](O)CO)C[C@H](O)[C@@H](O)[C@H](O)[C@H](O)CO)C(N)=O)cc1)NC(=O)c1nc(Cl)c(N)nc1N | 35.6 |
| N=C(NCCCCc1ccc2cc(CC[C@H](NCCCN(C[C@H](O)[C@@H](O)[C@H](O)[C@H](O)CO)C[C@H](O)[C@@H](O)[C@H](O)[C@H](O)CO)C(N)=O)ccc2c1)NC(=O)c1nc(Cl)c(N)nc1N | 12.5 |
